Assays:
Type in all cases: biochemical
[1] = molecular target: FGFR1 (Homo sapiens (Human), UniProt P11362); assay: FGFR Enzymatic Assay (FRET peptide phosphorylation), FGFR1; conditions: FGFR1 enzyme 0.02 nM, ATP 210 μM, 25° C., 1 hr
[2] = molecular target: FGFR2 (Homo sapiens (Human), UniProt P21802); assay: FGFR Enzymatic Assay (FRET peptide phosphorylation), FGFR2; conditions: FGFR2 enzyme 0.01 nM, ATP 100 μM, 25° C., 1 hr
Protocol: (§1) The inhibitor potency of the exemplified compounds was measured in an enzyme assay that measures peptide phosphorylation using FRET measurements to detect product formation. Inhibitors were serially diluted in DMSO and a volume of 0.5 μL was transferred to the wells of a 384-well plate. For FGFR3, a 10 μL volume of FGFR3 enzyme (Millipore) diluted in assay buffer (50 mM HEPES, 10 mM MgCl2, 1 mM EGTA, 0.01% Tween-20, 5 mM DTT, pH 7.5) was added to the plate and pre-incubated for 5-10 minutes. Appropriate controls (enzyme blank and enzyme with no inhibitor) were included on the plate. […] The plate was incubated at 25° C. for 1 hr. […] The plate was allowed to equilibrate for ˜1 hr before scanning the wells on a PheraStar plate reader (BMG Labtech).
The enzymes were purchased from Millipore or Invitrogen.
(§2) GraphPad prism3 was used to analyze the data. The IC50 values were derived by fitting the data to the equation for a sigmoidal dose-response with a variable slope. Y=Bottom+(Top−Bottom)/(1+10^((Log IC50−X)*HillSlope)) where X is the logarithm of concentration and Y is the response.

[3] = molecular target: FGFR3 (Homo sapiens (Human), UniProt P22607); assay: FGFR Enzymatic Assay (FRET peptide phosphorylation), FGFR3; conditions: FGFR3 enzyme (Millipore), ATP 140 μM, 25° C., 1 hr
Chain of FGFR3 (P22607 23-806): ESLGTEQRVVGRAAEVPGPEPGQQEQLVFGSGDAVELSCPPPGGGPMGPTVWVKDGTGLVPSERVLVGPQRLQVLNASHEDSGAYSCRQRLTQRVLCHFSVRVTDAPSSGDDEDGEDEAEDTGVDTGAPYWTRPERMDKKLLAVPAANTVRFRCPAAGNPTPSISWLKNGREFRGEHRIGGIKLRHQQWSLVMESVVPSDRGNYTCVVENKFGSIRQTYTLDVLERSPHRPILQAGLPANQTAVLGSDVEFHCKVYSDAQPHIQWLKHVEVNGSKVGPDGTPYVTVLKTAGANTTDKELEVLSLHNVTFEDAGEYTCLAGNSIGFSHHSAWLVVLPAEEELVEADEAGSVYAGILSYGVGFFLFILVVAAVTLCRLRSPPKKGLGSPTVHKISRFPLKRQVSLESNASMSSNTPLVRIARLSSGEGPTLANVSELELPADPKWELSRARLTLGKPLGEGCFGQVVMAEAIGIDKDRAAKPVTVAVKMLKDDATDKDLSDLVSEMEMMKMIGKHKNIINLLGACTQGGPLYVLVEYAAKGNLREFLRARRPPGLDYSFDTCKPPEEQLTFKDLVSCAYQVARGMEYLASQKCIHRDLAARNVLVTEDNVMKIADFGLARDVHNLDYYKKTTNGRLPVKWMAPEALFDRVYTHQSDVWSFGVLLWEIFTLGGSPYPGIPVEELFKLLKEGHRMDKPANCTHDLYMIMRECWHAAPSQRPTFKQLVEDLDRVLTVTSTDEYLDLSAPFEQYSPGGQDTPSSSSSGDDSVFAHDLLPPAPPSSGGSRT
Protocol: as §1, §2

Measured: IC50

Chain of FGFR2 (P21802 22-821): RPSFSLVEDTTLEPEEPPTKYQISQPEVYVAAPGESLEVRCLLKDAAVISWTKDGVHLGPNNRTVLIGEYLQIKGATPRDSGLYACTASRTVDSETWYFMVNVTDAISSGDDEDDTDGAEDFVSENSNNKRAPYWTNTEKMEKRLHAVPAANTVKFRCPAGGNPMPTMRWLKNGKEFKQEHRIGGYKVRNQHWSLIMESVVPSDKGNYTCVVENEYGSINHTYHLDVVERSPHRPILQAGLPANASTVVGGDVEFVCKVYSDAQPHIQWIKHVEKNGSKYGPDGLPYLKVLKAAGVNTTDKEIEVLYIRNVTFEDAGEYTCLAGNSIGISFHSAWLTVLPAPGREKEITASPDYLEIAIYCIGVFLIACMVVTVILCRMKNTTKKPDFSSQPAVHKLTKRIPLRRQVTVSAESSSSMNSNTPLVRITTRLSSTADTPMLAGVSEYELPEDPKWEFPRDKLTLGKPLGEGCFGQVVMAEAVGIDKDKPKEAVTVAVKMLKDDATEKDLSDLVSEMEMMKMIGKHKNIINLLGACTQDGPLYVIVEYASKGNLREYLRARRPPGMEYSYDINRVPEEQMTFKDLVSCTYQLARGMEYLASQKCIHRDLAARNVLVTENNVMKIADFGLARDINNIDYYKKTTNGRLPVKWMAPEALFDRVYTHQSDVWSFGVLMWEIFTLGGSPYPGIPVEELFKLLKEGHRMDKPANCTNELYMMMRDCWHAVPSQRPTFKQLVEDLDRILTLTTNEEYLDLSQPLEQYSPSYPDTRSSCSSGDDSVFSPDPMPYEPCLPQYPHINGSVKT
Chain of FGFR1 (P11362 22-822): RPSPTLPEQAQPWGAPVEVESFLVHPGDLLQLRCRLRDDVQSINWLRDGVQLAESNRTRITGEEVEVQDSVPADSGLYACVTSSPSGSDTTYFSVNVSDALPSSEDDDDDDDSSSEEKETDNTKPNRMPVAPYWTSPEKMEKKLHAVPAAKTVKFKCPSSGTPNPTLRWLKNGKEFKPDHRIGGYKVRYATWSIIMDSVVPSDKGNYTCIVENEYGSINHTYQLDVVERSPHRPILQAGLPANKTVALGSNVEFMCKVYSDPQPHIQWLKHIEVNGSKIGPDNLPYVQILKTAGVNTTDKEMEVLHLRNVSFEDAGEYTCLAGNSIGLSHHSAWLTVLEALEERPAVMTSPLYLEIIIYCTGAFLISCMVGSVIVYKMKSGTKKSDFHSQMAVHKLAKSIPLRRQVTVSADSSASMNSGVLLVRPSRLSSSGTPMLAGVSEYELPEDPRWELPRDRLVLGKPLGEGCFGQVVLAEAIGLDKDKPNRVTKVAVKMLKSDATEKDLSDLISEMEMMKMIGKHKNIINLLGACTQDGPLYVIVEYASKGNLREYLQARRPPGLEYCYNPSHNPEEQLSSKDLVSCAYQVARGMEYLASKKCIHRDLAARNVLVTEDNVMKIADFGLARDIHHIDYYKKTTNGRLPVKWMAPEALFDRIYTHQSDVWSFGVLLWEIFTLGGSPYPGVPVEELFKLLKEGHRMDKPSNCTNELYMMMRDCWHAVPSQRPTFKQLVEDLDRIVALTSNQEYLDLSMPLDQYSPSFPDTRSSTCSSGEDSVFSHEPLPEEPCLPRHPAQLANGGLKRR

CCN1C(=O)N(c2c(F)c(OC)cc(OC)c2Cl)Cc2cnc3c(c21)CC(=O)N3 [Example 63, 3-(2-chloro-6-fluoro-3,5-dimethoxyphenyl)-1-ethyl-3,4,7,9-tetrahydro-1H-pyrrolo[3′,2′:5,6]pyrido[4,3-d]pyrimidine-2,8-dione]
< 100 nM: all assays above
